Experiments:
NHE-2 isoform = target: T1, NHE-2 isoform (Homo sapiens, UniProt Q9UBY0); conditions: cited from earlier work
T1 sequence (Q9UBY0 1-812): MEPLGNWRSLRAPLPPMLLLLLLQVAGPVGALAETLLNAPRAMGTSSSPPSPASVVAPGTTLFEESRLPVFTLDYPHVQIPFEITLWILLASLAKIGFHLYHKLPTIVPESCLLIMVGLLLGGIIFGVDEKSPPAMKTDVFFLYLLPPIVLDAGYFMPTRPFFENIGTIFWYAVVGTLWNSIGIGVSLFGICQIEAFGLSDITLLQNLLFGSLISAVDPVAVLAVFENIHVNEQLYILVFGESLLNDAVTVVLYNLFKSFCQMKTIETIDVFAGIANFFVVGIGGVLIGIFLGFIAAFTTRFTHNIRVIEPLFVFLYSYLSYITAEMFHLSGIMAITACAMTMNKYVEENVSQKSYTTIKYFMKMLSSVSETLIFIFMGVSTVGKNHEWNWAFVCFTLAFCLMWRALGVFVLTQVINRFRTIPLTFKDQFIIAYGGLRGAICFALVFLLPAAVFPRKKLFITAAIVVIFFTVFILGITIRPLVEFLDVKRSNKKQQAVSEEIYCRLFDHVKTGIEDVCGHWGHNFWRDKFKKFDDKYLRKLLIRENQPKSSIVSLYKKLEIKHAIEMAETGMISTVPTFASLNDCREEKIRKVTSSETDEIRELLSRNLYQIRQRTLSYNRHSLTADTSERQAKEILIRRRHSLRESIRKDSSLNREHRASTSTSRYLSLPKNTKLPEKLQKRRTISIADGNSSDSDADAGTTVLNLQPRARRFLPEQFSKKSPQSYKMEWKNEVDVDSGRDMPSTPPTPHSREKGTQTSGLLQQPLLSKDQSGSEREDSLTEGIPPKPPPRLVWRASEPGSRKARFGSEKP

NHE5 = target: T2, NHE5 (Homo sapiens, UniProt Q14940); conditions: cited from earlier work
T2 sequence (Q14940 1-896): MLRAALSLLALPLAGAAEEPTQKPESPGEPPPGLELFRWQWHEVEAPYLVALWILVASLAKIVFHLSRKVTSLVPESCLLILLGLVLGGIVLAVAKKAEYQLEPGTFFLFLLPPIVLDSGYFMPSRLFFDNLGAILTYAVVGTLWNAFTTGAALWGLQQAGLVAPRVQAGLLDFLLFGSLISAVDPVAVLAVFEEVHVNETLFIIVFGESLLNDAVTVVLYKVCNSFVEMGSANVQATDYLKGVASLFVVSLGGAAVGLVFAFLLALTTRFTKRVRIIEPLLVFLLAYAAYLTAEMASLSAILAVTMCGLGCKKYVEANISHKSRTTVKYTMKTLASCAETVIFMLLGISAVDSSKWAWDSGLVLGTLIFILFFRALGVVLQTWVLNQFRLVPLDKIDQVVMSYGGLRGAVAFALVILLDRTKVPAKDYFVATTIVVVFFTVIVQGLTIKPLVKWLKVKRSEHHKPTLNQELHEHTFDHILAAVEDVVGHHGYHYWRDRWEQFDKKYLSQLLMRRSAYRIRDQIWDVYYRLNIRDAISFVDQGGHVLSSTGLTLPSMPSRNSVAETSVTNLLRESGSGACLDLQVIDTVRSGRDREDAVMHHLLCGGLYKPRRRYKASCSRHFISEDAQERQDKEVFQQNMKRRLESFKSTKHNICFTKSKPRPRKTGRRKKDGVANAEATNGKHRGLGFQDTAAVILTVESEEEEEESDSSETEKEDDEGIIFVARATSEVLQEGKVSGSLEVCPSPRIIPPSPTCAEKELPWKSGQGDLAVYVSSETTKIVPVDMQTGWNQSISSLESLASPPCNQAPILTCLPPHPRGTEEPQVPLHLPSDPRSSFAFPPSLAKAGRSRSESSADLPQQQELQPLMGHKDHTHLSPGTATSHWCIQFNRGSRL

NHE-3 = NHE-3 (Homo sapiens, UniProt P48764); conditions: cited from earlier work
ApoE receptors (Apoer2) = experiment: recycling of ApoE receptors in the presence of ApoE4 / ApoE3; format: cell-based

NHE-3, sequence (P48764 26-834, species assumed): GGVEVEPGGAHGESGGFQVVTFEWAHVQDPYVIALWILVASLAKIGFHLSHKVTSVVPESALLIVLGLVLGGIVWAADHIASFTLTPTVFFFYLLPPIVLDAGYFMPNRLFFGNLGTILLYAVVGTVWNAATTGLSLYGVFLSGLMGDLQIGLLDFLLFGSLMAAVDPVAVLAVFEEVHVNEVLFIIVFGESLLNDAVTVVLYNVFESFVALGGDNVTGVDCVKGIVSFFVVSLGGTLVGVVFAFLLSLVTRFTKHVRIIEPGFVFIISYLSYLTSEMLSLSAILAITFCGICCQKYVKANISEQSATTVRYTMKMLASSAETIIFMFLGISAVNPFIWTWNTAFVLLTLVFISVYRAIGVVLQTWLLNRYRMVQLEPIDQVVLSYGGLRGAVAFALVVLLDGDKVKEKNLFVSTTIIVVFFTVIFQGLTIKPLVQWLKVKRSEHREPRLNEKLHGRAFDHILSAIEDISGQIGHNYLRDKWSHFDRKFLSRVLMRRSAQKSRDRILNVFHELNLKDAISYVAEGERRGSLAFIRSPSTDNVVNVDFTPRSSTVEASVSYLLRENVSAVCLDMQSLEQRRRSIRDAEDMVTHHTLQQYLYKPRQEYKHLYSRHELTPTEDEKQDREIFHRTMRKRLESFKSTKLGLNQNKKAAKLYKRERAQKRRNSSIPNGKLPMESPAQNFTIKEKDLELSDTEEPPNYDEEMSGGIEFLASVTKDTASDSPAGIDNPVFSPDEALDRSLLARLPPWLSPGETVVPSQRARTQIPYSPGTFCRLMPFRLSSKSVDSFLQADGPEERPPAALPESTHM

SMILES: CS(=O)(=O)O.CS(=O)(=O)c1cc(C(=O)N=C(N)N)ccc1N1CCCCC1 [HOE 694]
- NHE-2 isoform selectivity (NHE-2 isoform): relatively selective

SMILES: CN1Cc2c(Cl)cc(Cl)cc2C(c2ccc(S(=O)(=O)N=C(N)N)cc2)C1 (stereo not shown) [N-diaminomethylene-4-(6,8-dichloro-2-methyl-1,2,3,4-tetrahydroisoquinolin-4-yl)benzenesulfonamide]
- NHE5 selectivity (NHE5): NHE5 selective

SMILES: CC(=Cc1cc(C)ccc1C=C(C)C(=O)NC(=N)N)C(=O)N=C(C)C.Cl.Cl [S3226, 3-[2-(3-guanidino-2-methyl-3-oxo-propenyl)-5-methyl-phenyl]-N-isopropylidene-2-methyl-acrylamide dihydro-chloride]
- NHE-3 potency and specificity (NHE-3): relatively potent and specific

SMILES: COc1ccc2c3c([nH]c2c1)C(C)=NCC3 [hamaline]
- NHE5 selectivity (NHE5): NHE5 selective

SMILES: CC(C)NCC(O)c1ccc(O)c(O)c1 (stereo not shown) [isoproterenol]
- ApoE receptor recycling (ApoE receptors (Apoer2); activation of beta-adrenergic receptors, in the presence or absence of IBMX): restores normal ApoE receptor recycling

SMILES: COc1ccc(C2CNC(=O)C2)cc1OC1CCCC1 (stereo not shown) [rolipram]
- effect on altering the recycling properties of Apoer2 (ApoE receptors (Apoer2); in the presence of ApoE3): negligible effect
- recycling deficit induced by ApoE4 (ApoE receptors (Apoer2); in the presence of ApoE4): completely normalizes

From patent publication US8530516B2, “Promoting cycling of ApoE4 isoform” (Board of Regents, The University of Texas System, priority 2009, dated 2013)
